Experimental data from patent publication US20250214977A1, “STAT6 INHIBITORS AND USES THEREOF” (Kymera Therapeutics, Inc., priority 2024, published 2025).

test system: Phosphorylation of STAT6 in human A549 cells; experiment: Phosphorylated STAT6 (pSTAT6) flow cytometry assay in human A549 cells; assay type: cell-based; details: listed as I-393, read-out: STAT6 IL4 pSTAT6 assay in A549 cells: Average IC50
From the text: Example 3. Phosphorylated STAT6 (pSTAT6) Flow Cytometry Assay in Human A549 Cells
Phosphorylation of STAT6 in human A549 cells was quantitatively measured using flow cytometry technology.

| IC50 | SMILES |
| --- | --- |
| < 100 nM | CCC1CN(C)CC1c1cc(C2=CCCN(C(=O)CCn3ccnn3)C2)c(F)c2[nH]c(C(=O)N3CCN(c4ncc(F)cc4OC)CC3)cc12 (centres unmarked) [Example I-1208, 1-[5-[4-(4-ethyl-1-methyl-pyrrolidin-3-yl)-7-fluoro-2-[4-(5-fluoro-3-methoxy-2-pyridyl)piperazine-1-carbonyl]-1H-indol-6-yl]-3,6-dihydro-2H-pyridin-1-yl]-3-(triazol-1-yl)propan-1-one] |

same assay, conditions: read-out: STAT6 IL4 pSTAT6 assay in A549 cells: Average IC50

| SMILES | IC50 |
| --- | --- |
| COc1cc(F)cnc1N1CCN(C(=O)c2cc3c(-c4ccnc(OC(F)F)c4)cc(C4=CCCN(C(=O)CCn5ccnn5)C4)c(F)c3[nH]2)CC1 [Example I-653] | < 100 nM |
| COc1ccc(C)cc1-c1cc(C2=CCCN(C(=O)CCn3ccnn3)C2)cc2[nH]c(C(=O)N(C)C)cc12 [Example I-1057] | < 100 nM |
| COc1cc(F)cnc1N1CCN(C(=O)c2cc3c(-c4cccc(C5CC5)c4)cc(C4=CCCN(C(=O)CCn5ccnn5)C4)c(F)c3[nH]2)CC1 [Example I-674] | 100 to 1000 nM |
| COc1cc(F)cnc1N1CCN(C(=O)c2cc3c(-c4ccnc(F)c4OC)cc(C4=CCCN(C(=O)CCn5ccnn5)C4)c(F)c3[nH]2)CC1 [Example I-656] | < 100 nM |
| COc1cc(F)cnc1N1CCN(C(=O)c2cc3c(-c4cnccc4C(C)C)cc(C4=CCCN(C(=O)CCn5cccn5)C4)c(F)c3[nH]2)CC1 [Example I-669] | < 100 nM |
| CN(C)C(=O)c1cc2cc(C3=CCCN(C(=O)CCn4ccnn4)C3)cc(-c3ccc(C(F)(F)F)cc3O)c2o1 [Example I-1073] | < 100 nM |
| COc1ccccc1-c1cc(C2=CCCN(C(=O)CCn3ccnn3)C2)c(F)c2[nH]c(C(=O)N3CCN(c4c(F)cc(F)cc4OC)CC3)cc12 [Example I-432] | < 100 nM |
| COc1ccccc1-c1cc(C2=CCCN(C(=O)CCn3ccnn3)C2)c(F)c2[nH]c(C(=O)N3CCC(n4c(=O)[nH]c5ncccc54)CC3)cc12 [Example I-981] | 100 to 1000 nM |
| CC(=O)N1CCC=C(c2cc(-c3ccc(F)cc3O)c3cc(C(=O)N(C)C)[nH]c3c2F)C1 [Example I-891] | 100 to 1000 nM |
| CCc1nc(C)ccc1-c1cc(C(=O)N2Cc3cnn(CC)c3C2)c(F)c2cc(C3=CCCN(C(=O)CCn4ccnn4)C3)n(CC3CC3)c12 [Example I-549] | > 100000 nM |
| CCc1cc(C)ncc1-c1cc(C2=CCCN(C(=O)CCn3ccnn3)C2)c(F)c2[nH]c(C(=O)N3CCN(c4ncc(F)cc4OC)CC3)cc12 [Example I-742] | < 100 nM |
| CN(C)C(=O)c1cc2cc(C3=CCCN(C(=O)CCn4ccnn4)C3)cc(C3CCNCC3)c2o1 [Example I-1048] | < 100 nM |
| CC(=O)N1CCC=C(c2cc(-c3ccc(C(F)(F)F)cc3O)c3cc(C(=O)N(C)C)[nH]c3c2F)C1 [Example I-888] | 100 to 1000 nM |
| CCn1ncc2c1CN(C(=O)c1cc3c(-c4ccccc4OC)cc(C4=CCCN(C(=O)CCn5ccnn5)C4)c(F)c3[nH]1)C2 [Example I-507] | 10000 to 100000 nM |
| COc1ccc(Cl)cc1-c1cc(C2=CCCN(C(=O)CCn3ccnn3)C2)cc2[nH]c(C(=O)N(C)C)cc12 [Example I-1058] | < 100 nM |
| Cc1ccc(C#N)cc1-c1cc(C2=CCCN(C(=O)CCn3ccnn3)C2)cc2cc(C(=O)N(C)C)oc12 [Example I-1079] | < 100 nM |
| COc1ccccc1-c1cc(C2=CCCN(C(=O)CCn3ccnn3)C2)c(F)c2[nH]c(C(=O)N3CCN(c4cc(O)cc5ccccc45)CC3)cc12 [Example I-930] | 100 to 1000 nM |
| COc1ccc(N2CCN(C(=O)c3cc4c(-c5ccccc5OC)cc(C5=CCCN(C(=O)CCn6ccnn6)C5)c(F)c4[nH]3)CC2)cc1 [Example I-960] | < 100 nM |
| CC(C(=O)N1CCC=C(c2ccc3cc(C(=O)N(C)C)[nH]c3c2)C1)n1ccccc1=O (centres unmarked) [Example I-825] | 100 to 1000 nM |
| COc1ccccc1-c1cc(C2=CCCN(C(=O)CCn3ccnn3)C2)c(F)c2[nH]c(C(=O)N3CCN(c4nnn(C)c4C)CC3)cc12 [Example I-778] | < 100 nM |
| COc1ccccc1-c1cc(C2=CCCN(C(=O)CCn3ccnn3)C2)c(F)c2[nH]c(C(=O)N3CCN(c4ncccc4OC(F)F)CC3)cc12 [Example I-358] | < 100 nM |
| CCc1cn[nH]c1N1CCN(C(=O)c2cc3c(-c4cnccc4OC)cc(C4=CCCN(C(=O)CCn5ccnn5)C4)c(F)c3[nH]2)CC1 [Example I-540] | < 100 nM |
| CCOC(=O)c1ccc(N2CCN(C(=O)c3cc4c(-c5ccccc5OC)cc(C5=CCCN(C(=O)CCn6ccnn6)C5)c(F)c4[nH]3)CC2)cc1 [Example I-931] | 100 to 1000 nM |
| COc1cnccc1-c1cc(C2=CCCN(C(=O)CCn3ccnn3)C2)c(F)c2[nH]c(C(=O)N3CCN(c4ncc(F)cc4OC)CC3)cc12 [Example I-666] | > 100000 nM |
| COc1ccccc1-c1cc(C2=CCCN(C(=O)C(C)C)C2)c(F)c2[nH]c(C(=O)N(C)C)cc12 [Example I-837] | 100 to 1000 nM |
| COc1ccccc1-c1cc(C2=CCCN(C(=O)CCn3ccnn3)C2)c(F)c2[nH]c(C(=O)N3CCC4(CC3)OCCO4)cc12 [Example I-1000] | < 100 nM |
| COc1cc(F)cnc1N1CCN(C(=O)c2cc3c(C4=CCOCC4)cc(C4=CCCN(C(=O)CCn5ccnn5)C4)c(F)c3[nH]2)CC1 [Example I-1156] | < 100 nM |
| CN(C)C(=O)c1cc2ccc([C@H]3CCCN(C(=O)CCn4ccnn4)C3)c(F)c2[nH]1 (single isomer, unassigned) [Example I-1187] | < 100 nM |
| CN(C)C(=O)c1ccc2c(c1)cc(C1=CCCN(C(=O)CCn3ccnn3)C1)n2CC1CC1 [Example I-1096] | < 100 nM |
| COc1ccccc1-c1cc(C2=CCCN(C(C)=O)C2)c(F)c2cc(C(=O)N(C)C)oc12 [Example I-1104] | 100 to 1000 nM |

Now from value to molecule:

| IC50 | SMILES |
| --- | --- |
| < 100 nM | COc1cc(F)cnc1N1CCN(C(=O)c2cc3c(-c4cccc(-c5ccncc5)c4)cc(C4=CCCN(C(=O)CCn5ccnn5)C4)c(F)c3[nH]2)CC1 [Example I-626] |
| < 100 nM | COc1ccccc1-c1cc(C2=CCCN(C(=O)CCn3ccnn3)C2)c(F)c2[nH]c(C(=O)N3CCN(c4cccnc4OC)CC3)cc12 [Example I-347] |
| > 100000 nM | COc1ccccc1N1CCN(C(=O)c2cc3c(-c4cnccc4OC(C)C)cc(C4=CCCN(C(=O)CCn5ccnn5)C4)c(F)c3[nH]2)CC1 [Example I-403] |
| < 100 nM | COc1ccccc1-c1cc(C2=CCCN(C(=O)CCn3ccnn3)C2)c(F)c2[nH]c(C(=O)N3CCN(c4cccnc4)CC3)cc12 [Example I-774] |
| < 100 nM | COc1cc(F)cnc1N1CCN(C(=O)c2cc3c(-c4ccc(-c5ccccn5)cc4)cc(C4=CCCN(C(=O)CCn5ccnn5)C4)c(F)c3[nH]2)CC1 [Example I-1120] |
| < 100 nM | COc1cc(F)cnc1N1CCN(C(=O)c2cc3c(-c4c(F)ccc5ccc(C)nc45)cc(C4=CCCN(C(=O)CCn5ccnn5)C4)c(F)c3[nH]2)CC1 [Example I-631] |
| < 100 nM | COc1cc(F)cnc1N1CCN(C(=O)c2cc3c(C4=CCCCC4)cc(C4=CCCN(C(=O)CCn5ccnn5)C4)c(F)c3[nH]2)CC1 [Example I-1135] |
| 100 to 1000 nM | COc1cccc(N2CCN(C(=O)c3cc4c(-c5cnc6ccccc6c5OC)cc(C5=CCCN(C(=O)CCn6ccnn6)C5)c(F)c4[nH]3)CC2)n1 [Example I-1038] |
| 1000 to 10000 nM | COCc1cccc(NC(=O)c2cc3c(-c4ccccc4OC)cc(C4=CCCN(C(=O)CCn5ccnn5)C4)c(F)c3[nH]2)c1 [Example I-1028] |
| < 100 nM | CNc1ccc(-c2cc(C3=CCCN(C(=O)CCn4ccnn4)C3)c(F)c3[nH]c(C(=O)N4CCN(c5ncccc5OC)CC4)cc23)c(OC)c1 [Example I-580] |
| < 100 nM | COc1cccnc1N1CCN(C(=O)c2cc3c(-n4nc(C)cc4C)cc(C4=CCCN(C(=O)CCn5ccnn5)C4)c(F)c3[nH]2)CC1 [Example I-586] |
| < 100 nM | O=C(CCn1ccnn1)N1CCC=C(c2cc(-c3ccccc3OC3CC3)c3cc(C(=O)N4CCN(c5ncccc5OC5CC5)CC4)[nH]c3c2F)C1 [Example I-477] |
| 100 to 1000 nM | COC(=O)c1cnn(-c2cc(C3=CCCN(C(=O)CCn4ccnn4)C3)cc3cc(C(=O)N(C)C)oc23)c1 [Example I-1049] |
| < 100 nM | COc1cc(F)cnc1N1CCN(C(=O)c2cc3c(-c4ccc(C)c(C#N)c4)cc(C4=CCCN(C(=O)CCn5ccnn5)C4)c(F)c3[nH]2)CC1 [Example I-648] |
| < 100 nM | COc1ccncc1-c1cc(C2=CCCN(C(=O)CCn3ccnn3)C2)c(F)c2[nH]c(C(=O)N3CCN(C4CCCCC4)CC3)cc12 [Example I-1149] |
| < 100 nM | COc1cnccc1-c1cc(C2=CCCN(C(=O)CCn3ccnn3)C2)c(F)c2[nH]c(C(=O)N3CCN(c4ncccc4OC4CC4)CC3)cc12 [Example I-593] |
| > 100000 nM | CCc1nc(C)ccc1-c1cc(C(=O)N2CCN(c3ccc(F)cc3OC)CC2)cc2cc(C3=CCCN(C(=O)CCn4ccnn4)C3)n(CC3CC3)c12 [Example I-534] |
| 100 to 1000 nM | CN(C)C(=O)c1cc2cc(C3=CCCN(C(=O)CCn4ccnn4)C3)cnc2[nH]1 [Example I-819] |
| 100 to 1000 nM | COc1cc(Cl)cnc1N1CCN(C(=O)c2cc3c(-c4cnc5ccccc5c4OC)cc(C4=CCCN(C(=O)CCn5ccnn5)C4)c(F)c3[nH]2)CC1 [Example I-1037] |
| < 100 nM | COc1ccccc1-c1cc(C2=CCCN(C(=O)CCn3ccnn3)C2)c(F)c2[nH]c(C(=O)N3CCN(c4cn5ccnc5cc4C)CC3)cc12 [Example I-915] |
| < 100 nM | CCOc1ccncc1-c1cc(C2=CCCN(C(=O)CCn3ccnn3)C2)c(F)c2[nH]c(C(=O)N3CCN(c4cnc(C)nc4OC)CC3)cc12 [Example I-1036] |
| 100 to 1000 nM | CC(=O)N1CCC=C(c2cc(-c3ccc4cncnc4c3)c3cc(C(=O)N(C)C)[nH]c3c2F)C1 [Example I-887] |
| 100 to 1000 nM | CN(C)C(=O)c1cc2c(F)c(C3=CCCN(C(=O)[C@@H]4Cc5ccccc5CN4C=O)C3)ccc2o1 (single isomer, unassigned) [Example I-375] |
| < 100 nM | CN(C)C(=O)c1cc2c(-c3ccccc3S(C)(=O)=O)cc(C3=CCCN(C(=O)CCn4ccnn4)C3)c(F)c2[nH]1 [Example I-1068] |
| 100 to 1000 nM | COc1ccccc1-c1cc(C2=CCCN(C(=O)CCn3ccnn3)C2)c(F)c2[nH]c(C(=O)N3CCC(C)(O)C3)cc12 (centres unmarked) [Example I-1006] |
